Like-named read-outs stand apart in the source and are kept apart here. Marks after values point to notes of the source that are not given here.
Columns and labels:
C. neoformans ATCC 66031 = assay: Minimum fungicidal concentration assay, C. neoformans; type: cell-based; conditions: Table 2B
[1] = tested on: Klebsiella pneumoniae (ATCC 13883); assay: MIC broth microdilution, K. pneumoniae 13883; type: cell-based
Procedure: (§1) The minimum inhibitory concentration (MIC) for each tested compound was determined by the broth microdilution method as recommended by the Clinical and Laboratory Standards Institute (CLSI). In a 96-well plate, eleven two-fold serial dilutions of each compound were made in a final volume of 100 μL Luria Broth. Each well was inoculated with ˜10^5 bacterial cells at the initial time of incubation, prepared from a fresh log phase culture (OD600 of 0.5 to 1.0 depending on bacterial strain). The MIC was defined as the lowest concentration of compound that prevented bacterial growth after incubating 16 to 18 hours at 37° C. (MIC values were supported by spectrophotometric readings at OD600). DMSO served as our vehicle and negative control in each microdilution MIC assay. DMSO was serially diluted with a top concentration of 1% v/v.
as §1, with “for each compound was” for “for each tested compound was”, “Standards Institute (CLSI).^6 In a” for “Standards Institute (CLSI). In a”, “concentration of test compound that” for “concentration of compound that”, “37° C. The concentration range tested for each compound during this study was 0.10 to 100 μM. DMSO served” for “37° C. (MIC values were supported by spectrophotometric readings at OD600). DMSO served”, “1% v/v. All MIC values were obtained from a minimum of three independent experiments.” for “1% v/v.”

C. albicans SC5314 = assay: Minimum fungicidal concentration assay, C. albicans; type: cell-based, Candida albicans; conditions: Table 2B
[2] = tested on: Escherichia coli clinical isolate (UAEC-1); assay: MIC broth microdilution, UAEC-1; type: cell-based; conditions: for MIC UAEC-1: Table 4; for MIC: Table 1
Procedure: as §1
as §1, with “for each compound was” for “for each tested compound was”, “Standards Institute (CLSI).^6 In a” for “Standards Institute (CLSI). In a”, “concentration of test compound that” for “concentration of compound that”, “37° C. The concentration range tested for each compound during this study was 0.10 to 100 μM. DMSO served” for “37° C. (MIC values were supported by spectrophotometric readings at OD600). DMSO served”, “1% v/v. All MIC values were obtained from a minimum of three independent experiments.” for “1% v/v.”

[3] = tested on: C. albicans SC5314 biofilms; assay: MTT assay for fungal biofilm eradication (MBEC), C. albicans; type: cell-based, Candida albicans; conditions: Table 2B, 90% eradicated biofilm
Procedure: One colony was picked from a 24-hour old culture of Candida spp. or 48-hour old culture of C. neoformans and added to YPD liquid medium for inoculation and cultured at 37° C. overnight. Cells were then washed with PBS (Phosphate-buffered saline (10 mM potassium phosphate, 150 mM NaCl, pH 7.0)) and standardized to OD600=1.0. Microtiter wells were then treated with 50% FCS (Fetal calf serum) in PBS for at least 30 min at room temperature (FCS pre-treatment is not absolutely required for Candida spp.). The FCS was aspirated and microtiter wells were rinsed once with 200 μL PBS before 100 μL of the cell suspension was added to each microtiter well. The plate was then incubated statically at 37° C. for 2 hours. Non-adherent cells were then removed by aspiration and microtiter wells were washed with PBS twice to remove loosely associated cells.
The resulting cell culture was aspirated and wells were rinsed once with 200 μL PBS. Controls and compounds were diluted in YNB medium (200 μL) were added to microtiter wells.
Following incubation, the culture was aspirated and wells are rinsed twice with 200 μL PBS before 100 μL of MTT (0.5 mg/mL dissolved in PBS containing 1% glucose) was added to each microtiter well. The plate was then incubated at 37° C. for 30 min, or longer, until dark blue/black crystals formation could be observed (usually 2 hours at most). The MTT reaction was terminated by aspiration of the solution. The crystals were then solubilized by adding 100 μL of 40% acetic acid to the microtiter wells. Killing efficacies were monitored by eye or quantitatively measured using a plate reader (absorbance at 550 nm). MBEC values were determined as the lowest compound concentration leading to 90% eradicated biofilm. All MBEC values using the MTT assay were recorded from at least three independent experiments.

MRSE ATCC 35984 biofilms = assay: Calgary Biofilm Device assay (MBC/MBEC), MRSE 35984; type: cell-based, Staphylococcus epidermidis
Procedure: (§2) The lid of the Calgary device was then removed, washed and transferred to another 96-well plate containing 2-fold serial dilutions of the test compounds (the “challenge plate”). The total volume of media with compound in each well in the challenge plate is 150 μL. […] The lid was then removed from the challenge plate and MBC/MBEC values were determined using different final assays. […] The MBC values were determined as the concentration giving a lack of visible bacterial growth (i.e., turbidity). […] In select experiments, pegs from the Calgary device were removed from lead biofilm eradicators after final incubation, sonicated for 30 minutes in PBS and plated out to determine biofilm cell killing of lead biofilm-eradicating agents (i.e., colony forming unit per milliliter, CFU/mL).
(§3) Using a Calgary Biofilm Device, bacterial biofilms are established on pegs suspended to the bottom of a 96-well plate lid. Following biofilm establishment on lid pegs, lids are then transferred to new 96-well plates containing serial dilutions of test compound and allowed to incubate. After compound treatment, 96-well plate lids with pegs are once again transferred to 96-well plates containing fresh media. During this final phase of the assay, viable biofilms will grow and disperse planktonic cells into the media where they will grow and give a turbid well result. Conversely, wells that have no growth are a result of pegs that had eradicated bacterial biofilms. The lowest concentration at which no turbidity is observed is the minimum biofilm eradication concentration (MBEC). Using the Calgary Biofilm Device, both minimum biofilm eradication concentrations and minimum bactericidal concentrations (MBC) for planktonic bacterial can be determined using one assay from a single bacterial culture (FIG. 3A).

MRSA BAA-1707 biofilms = assay: Calgary Biofilm Device assay (MBC/MBEC), MRSA BAA-1707; type: cell-based, Staphylococcus aureus
Procedure: as §2, §3

MRSA-2 biofilms = assay: Calgary Biofilm Device assay (MBC/MBEC), MRSA-2; type: cell-based, Staphylococcus aureus; conditions: Table 2A; CBD assay
Procedure: as §2, §3

VRE ATCC 700221 biofilms = assay: Calgary Biofilm Device assay (MBC/MBEC), VRE 700221; type: cell-based, Enterococcus faecium; conditions: for VRE MBC / VRE MBEC: Table 2A; for VRE 700221 MBEC: biofilm
Procedure: as §2, §3

[4] = Table 2, CBD assay, planktonic cells

CCCCCCCCCCCCCCCC[N+](C)(C)Cc1ccccc1.[Cl-] [BAC-16, reference compound]
C. neoformans 66031 MBC (C. neoformans ATCC 66031): 6.25 µM
MIC K. pneu. 13883 ([1]; Table 4): 9.38a micromolar
C. albicans SC5314 MBC (C. albicans SC5314): 6.25 µM
MIC UAEC-1 [2]: 6.25 µM
C. albicans SC5314 MBEC [3]: 15.63

CCCCCCCCCCCCCCCCn1cc[n+](C)c1C.[I-] [Compound 8]
C. neoformans 66031 MBC (C. neoformans ATCC 66031): 6.25 µM
MIC K. pneu. 13883 ([1]; Table 4): 12.5 µM
C. albicans SC5314 MBC (C. albicans SC5314): 6.25 µM
MRSE 35984 MBC (MRSE ATCC 35984 biofilms; Table 2A, CBD assay): 3.0^a/ μM
MRSE 35984 MBEC (MRSE ATCC 35984 biofilms; Table 2A, CBD assay): 3.0^a μM
MRSA BAA-1707 MBC (MRSA BAA-1707 biofilms; Table 2A, CBD assay): 11.7^a/ μM
MRSA BAA-1707 MBEC (MRSA BAA-1707 biofilms; Table 2A, CBD assay): 31.3 µM
MIC UAEC-1 [2]: 12.5 µM
C. albicans SC5314 MBEC [3]: 15.63
MRSA-2 MBC (MRSA-2 biofilms): 11.7 µM
MRSA-2 MBEC (MRSA-2 biofilms): 23.5 µM
VRE MBC (VRE ATCC 700221 biofilms; CBD assay): 3.9/3.9 μM
VRE MBEC (VRE ATCC 700221 biofilms; CBD assay): 3.9/3.9 μM

CCCCCCCCCCCCCCCCn1cc[n+](CCO)c1C.[Br-] [Compound 11]
C. neoformans 66031 MBC (C. neoformans ATCC 66031): 3.13 µM
MIC K. pneu. 13883 ([1]; Table 4): 18.8a micromolar
C. albicans SC5314 MBC (C. albicans SC5314): 6.25 µM
MRSE 35984 MBC (MRSE ATCC 35984 biofilms; Table 2A, CBD assay): 3.9/3.9 μM
MRSE 35984 MBEC (MRSE ATCC 35984 biofilms; Table 2A, CBD assay): 3.9/3.9 μM
MRSA BAA-1707 MBC (MRSA BAA-1707 biofilms; Table 2A, CBD assay): 23.5^a/ μM
MRSA BAA-1707 MBEC (MRSA BAA-1707 biofilms; Table 2A, CBD assay): 46.9^a μM
MIC UAEC-1 [2]: 12.5 µM
C. albicans SC5314 MBEC [3]: 7.82
MRSA-2 MBC (MRSA-2 biofilms): 11.7 µM
MRSA-2 MBEC (MRSA-2 biofilms): 31.3 µM
VRE MBC (VRE ATCC 700221 biofilms; CBD assay): 3.0^a/ μM
VRE MBEC (VRE ATCC 700221 biofilms; CBD assay): 3.9 µM

CCCCCCCCCCCCCCCCn1cc[n+](Cc2cccc(F)c2)c1C.[Br-] [Compound 18]
MRSE 35984 MBC (MRSE ATCC 35984 biofilms; Table 2A, CBD assay): 11.7^a/ μM
MRSE 35984 MBEC (MRSE ATCC 35984 biofilms; Table 2A, CBD assay): 11.7^a μM
MRSA-2 MBC (MRSA-2 biofilms): 93.8^a/93.8^a μM
MRSA-2 MBEC (MRSA-2 biofilms): 93.8^a/93.8^a μM
VRE MBC (VRE ATCC 700221 biofilms; CBD assay): 5.85^a/ μM
VRE MBEC (VRE ATCC 700221 biofilms; CBD assay): 11.7^a μM

CCCCCCCCCCCCCCCCn1cc(-c2ccccc2)[n+](C)n1.[I-] [Compound 30]
MRSA BAA-1707 MBC (MRSA BAA-1707 biofilms; Table 2A, CBD assay): 11.7^a/ μM
MRSA BAA-1707 MBEC (MRSA BAA-1707 biofilms; Table 2A, CBD assay): 23.5^a μM
MRSA-2 MBC (MRSA-2 biofilms): 31.3^b/31.3 μM
MRSA-2 MBEC (MRSA-2 biofilms): 31.3^b/31.3 μM

CCCCCCCCCCCCCCCCn1cc[n+](Cc2ccccc2)c1C [NH125, 3-benzyl-1-hexadecyl-2-methyl-1H-imidazol-3-ium bromide, reference compound]
MIC ([1]; Klebsiella pneumoniae, ATCC13883, Table 1, read-out: MIC K. pneumoniae 13883): 18.8 µM
MIC ([1]; Klebsiella pneumoniae, ATCC13883, Table 4, read-out: MIC K. pneu. 13883): 18.8 µM
MBC (MRSE ATCC 35984 biofilms; Staphylococcus epidermidis, Table 2, CBD assay, planktonic cells): 15.6 µM
MRSE 35984 MBEC (MRSE ATCC 35984 biofilms; Table 2, CBD assay, biofilm): 5.9 µM
minimum biofilm eradication concentration (MBEC), MRSA BAA-1707 biofilms (MRSA BAA-1707 biofilms): 46.9 µM
MBC (MRSA BAA-1707 biofilms; Staphylococcus aureus, Table 2, CBD assay, planktonic cells): 23.5 µM
MRSA BAA-1707 MBEC (MRSA BAA-1707 biofilms; Table 2, CBD assay, biofilm): 46.9 µM
reduction of viable biofilm cells (MRSA BAA-1707 biofilms; at 62.5, colony counts of CBD pegs, MRSA BAA-1707): 3 to 4 log
MIC ([2]; Escherichia coli): 18.8 µM
MIC UAEC-1 [2]: 18.8a micromolar
MBC (VRE ATCC 700221 biofilms; Enterococcus, Table 2, CBD assay, planktonic cells): 59 µM
VRE 700221 MBEC (VRE ATCC 700221 biofilms; Table 2, CBD assay): 11.7 µM

CCCCCCCCCCCC[N+](C)(C)CC[N+](C)(C)CC[N+](C)(C)CCCCCCCCCCCC [QAC-10, reference compound]
MIC ([1]; Table 1, read-out: MIC K. pneumoniae 13883): 25 µM
MIC K. pneu. 13883 ([1]; Table 4): 25 µM
MBEC, MRSE biofilms (MRSE ATCC 35984 biofilms; MRSE ATCC 35984): 31.3 µM
MRSE 35984 MBEC (MRSE ATCC 35984 biofilms; Table 2, CBD assay, biofilm): 31.3/31.3 μM
MRSE 35984 MBC (MRSE ATCC 35984 biofilms; [4]): 31.3/31.3 μM
MRSE 35984 MBC (MRSE ATCC 35984 biofilms; Table 2A, CBD assay): 31.3 µM⁻¹
MRSE 35984 MBEC (MRSE ATCC 35984 biofilms; Table 2A, CBD assay): 31.3 µM
MRSA BAA-1707 MBEC (MRSA BAA-1707 biofilms; Table 2, CBD assay, biofilm): 93.8^a/93.8^a μM
MRSA BAA-1707 MBC (MRSA BAA-1707 biofilms; [4]): 93.8^a/93.8^a μM
MRSA BAA-1707 MBC (MRSA BAA-1707 biofilms; Table 2A, CBD assay): 93.8^a/ μM
MRSA BAA-1707 MBEC (MRSA BAA-1707 biofilms; Table 2A, CBD assay): 93.8^a μM
MIC [2]: 12.5 µM
MIC UAEC-1 [2]: 12.5 µM
MRSA-2 MBC (MRSA-2 biofilms): 31.3 µM
MRSA-2 MBEC (MRSA-2 biofilms): 125 µM
MBEC, VRE biofilms (VRE ATCC 700221 biofilms): 3.0 µM
VRE 700221 MBEC (VRE ATCC 700221 biofilms; Table 2, CBD assay): 3.0^a/3.0^a μM
VRE 700221 MBC (VRE ATCC 700221 biofilms; [4]): 3.0^a/3.0^a μM
VRE MBC (VRE ATCC 700221 biofilms; CBD assay): 3.0^a/ μM
VRE MBEC (VRE ATCC 700221 biofilms; CBD assay): 3.0^a μM

Reference: patent US11419335B2, “N-arylated analogues and uses thereof” (University of Florida Research Foundation, Incorporated, priority 2016, dated 2022)
